Active and inactive are the calls of the source. No rule for the calls is given here.
Key:
[1] = target: Hypoxia-inducible factor 1-alpha (Homo sapiens) (UniProt Q16665); assay: HIF-2a and HIF-1a reporter inhibition panel, dose response, selectivity assay for HIF-2a inhibitor project, cell-based, luminescence (AID 651581); conditions: HIF-1a
[2] = target: Endothelial PAS domain-containing protein 1 (Homo sapiens) (UniProt Q99814); assay: as above

Chain of Hypoxia-inducible factor 1-alpha (Homo sapiens) (Q16665 whole entry, looked up, the tested form may be a part): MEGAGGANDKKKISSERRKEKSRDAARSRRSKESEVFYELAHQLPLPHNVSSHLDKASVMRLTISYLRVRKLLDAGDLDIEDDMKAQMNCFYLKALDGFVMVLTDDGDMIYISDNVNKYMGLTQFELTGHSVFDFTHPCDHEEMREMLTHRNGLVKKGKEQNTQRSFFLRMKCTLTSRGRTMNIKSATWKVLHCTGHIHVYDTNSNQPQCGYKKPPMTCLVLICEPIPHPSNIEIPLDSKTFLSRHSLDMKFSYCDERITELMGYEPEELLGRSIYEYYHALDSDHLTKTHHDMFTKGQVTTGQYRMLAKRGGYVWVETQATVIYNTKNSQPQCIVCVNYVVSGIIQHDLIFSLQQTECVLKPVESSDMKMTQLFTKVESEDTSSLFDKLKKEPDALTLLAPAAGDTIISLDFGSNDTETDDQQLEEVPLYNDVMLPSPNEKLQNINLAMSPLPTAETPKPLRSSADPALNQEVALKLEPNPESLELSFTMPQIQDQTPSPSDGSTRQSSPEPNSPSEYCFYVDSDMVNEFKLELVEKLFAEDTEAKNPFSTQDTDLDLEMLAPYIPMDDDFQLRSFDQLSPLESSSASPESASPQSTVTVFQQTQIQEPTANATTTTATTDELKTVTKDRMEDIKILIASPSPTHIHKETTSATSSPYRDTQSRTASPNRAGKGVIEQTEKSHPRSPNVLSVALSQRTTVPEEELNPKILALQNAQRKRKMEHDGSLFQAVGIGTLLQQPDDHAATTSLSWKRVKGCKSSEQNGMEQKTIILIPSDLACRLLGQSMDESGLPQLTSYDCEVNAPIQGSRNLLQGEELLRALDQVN

Compound	IC50 ([1]; mean of runs)	IC50 ([1]; run 1)	IC50 ([1]; run 2)	IC50 ([2]; HIF-2a PANC, mean of runs)	IC50 ([2]; HIF-2a PANC, run 1)	IC50 ([2]; HIF-2a PANC, run 2)	IC50 ([2]; HIF-2a, mean of runs)	IC50 ([2]; HIF-2a, run 1)	IC50 ([2]; HIF-2a, run 2)
Cc1c(CCC(=O)N2CCC[C@H]2C(=O)O)c(=O)oc2cc3oc4c(c3cc12)CCCC4	inactive	0.824 µM	1.53 µM	1.12 µM	1.11 µM	1.12 µM	0.512 µM	0.451 µM	0.574 µM
Cc1c(CCC(=O)O)c(=O)oc2cc3oc4c(c3cc12)CCCC4	1.12 µM	1.15 µM	1.08 µM	0.708 µM	0.793 µM	0.623 µM	0.276 µM	0.267 µM	0.286 µM
C=CS(=O)(=O)c1sc(Cl)c(N2CCOCC2)c1[N+](=O)[O-]	–	47.5 µM	> 99 µM	–	> 99 µM	15.5 µM	8.96 µM	9.47 µM	8.45 µM
CC(C)(C)c1ccc(-c2noc(CCC(=O)NCc3ccco3)n2)cc1	–	< 0.19 µM	41.9 µM	< 3 µM	< 3 µM	< 3 µM	< 1 µM	< 1 µM	< 1 µM
O=C(O)c1ccc2nc(-c3ccccc3)sc2c1	inactive	26.6 µM	22.9 µM	11.4 µM	12.7 µM	10.2 µM	–	< 30 µM	> 99 µM
CC(C)C[C@@H](N)c1nnc(SCC(=O)c2ccc(Cl)cc2)o1	–	> 99 µM	> 99 µM	3.91 µM	4.22 µM	3.6 µM	4.02 µM	4.09 µM	3.94 µM
O=C(O)COc1ccc(-c2nccc(-c3ccccn3)n2)cc1	inactive	0.397 µM	0.777 µM	1.14 µM	1.36 µM	0.912 µM	0.913 µM	0.806 µM	1.02 µM
O=C(CCCSc1nc2ccccc2s1)NC1=NCCS1	inactive	15 µM	10.5 µM	7.38 µM	7.27 µM	7.49 µM	6.38 µM	7.04 µM	5.72 µM
CSc1ccc(/C=N/Nc2cccc(C(=O)O)c2)cc1	–	> 99 µM	> 99 µM	> 99 µM (inactive)	> 99 µM	> 99 µM	5.33 µM	5.25 µM	5.4 µM
COCCn1c(C)cc(C(=O)CSc2nnc(C)s2)c1C	inactive	8.55 µM	18.9 µM	7.96 µM	3.81 µM	12.1 µM	5.99 µM	6.5 µM	5.48 µM
CC(=O)N(C(C)=O)c1ccc(Oc2ccc(Oc3ccc(N(C(C)=O)C(C)=O)cc3)cc2)cc1	inactive	12.2 µM	20.3 µM	1.51 µM	1.86 µM	1.15 µM	–	> 99 µM	1.58 µM
CCOc1ccc(OCc2cccc(C(=O)N/N=C/c3cccnc3)c2)cc1	–	> 99 µM	> 99 µM	inactive	16.7 µM	12 µM	2.03 µM	2.13 µM	1.94 µM
O=C(CCCc1nc(-c2ccccc2Cl)no1)NC1CCCC1	inactive	1.26 µM	1.83 µM	0.975 µM	1.08 µM	0.867 µM	1.04 µM	0.993 µM	1.08 µM

Continued, values first:

IC50 ([1]; mean of runs)	IC50 ([1]; run 1)	IC50 ([1]; run 2)	IC50 ([2]; HIF-2a PANC, mean of runs)	IC50 ([2]; HIF-2a PANC, run 1)	IC50 ([2]; HIF-2a PANC, run 2)	IC50 ([2]; HIF-2a, mean of runs)	IC50 ([2]; HIF-2a, run 1)	IC50 ([2]; HIF-2a, run 2)	Compound
inactive	21.3 µM	23 µM	18.7 µM	20.6 µM	16.9 µM	9.71 µM	10 µM	9.38 µM	Cc1ccc(S(=O)(=O)c2ncccc2[N+](=O)[O-])cc1
inactive	40.9 µM	34.6 µM	> 99 µM (inactive)	> 99 µM	> 99 µM	inactive	13.4 µM	13.2 µM	O=C1C=CC(=O)N1c1ccccc1N1C(=O)C=CC1=O
inactive	20.9 µM	16.9 µM	–	> 99 µM	51.9 µM	9.86 µM	10.2 µM	9.56 µM	COc1ccccc1C(C[N+](=O)[O-])c1c(N)n(C)c(=O)n(C)c1=O (stereo not drawn)
–	32.1 µM	< 30 µM	–	< 30 µM	13.4 µM	inactive	11.3 µM	9.04 µM	COc1ccc(OCc2cccc(C(=O)Nn3cc([N+](=O)[O-])cn3)c2)cc1
–	> 99 µM	> 99 µM	–	> 99 µM	< 30 µM	< 30 µM (inactive)	< 30 µM	< 30 µM	COc1ccc(OCc2cccc(C(=O)Nc3cc(C)on3)c2)cc1
26.7 µM	52.5 µM	0.851 µM	0.247 µM	0.202 µM	0.292 µM	< 0.3 µM	< 0.3 µM	< 1 µM	Nc1ccc(-c2ncc(-c3ccccc3)o2)cc1
40.8 µM	41.2 µM	40.3 µM	–	> 99 µM	< 3 µM	7.05 µM	7.84 µM	6.26 µM	O=[N+]([O-])C1C(c2ccccc2)C12c1ccccc1-c1ccccc12 (stereo not drawn)
43.4 µM	27.8 µM	59 µM	inactive	75.3 µM	20.5 µM	inactive	13.1 µM	12.7 µM	O=C(O)COc1ccc2oc3ccccc3c2c1
inactive	32.6 µM	26.2 µM	> 99 µM (inactive)	> 99 µM	> 99 µM	inactive	13.9 µM	14.2 µM	CC(=O)/C=C1/C(=O)Nc2ccccc21
51 µM	55.3 µM	46.8 µM	inactive	35.8 µM	34.5 µM	5.93 µM	5.83 µM	6.03 µM	CCOC(=O)Cc1csc(NC(=S)NC(=O)c2ccc([N+](=O)[O-])cc2)n1
–	> 99 µM	56.4 µM	2.65 µM	2.6 µM	2.7 µM	3.03 µM	3.35 µM	2.7 µM	Cc1ccc(C)c(-c2nc3cc(N)ccc3o2)c1
64.6 µM	80 µM	49.2 µM	> 99 µM (inactive)	> 99 µM	> 99 µM	inactive	12.5 µM	10.9 µM	CC(=O)Nc1ccc(OS(=O)(=O)c2c(C)cc(C)cc2C)cc1
inactive	13.5 µM	18.5 µM	–	> 99 µM	24.2 µM	8.61 µM	8.32 µM	8.9 µM	Cc1nnnn1/C(=C\c1ccccc1)C(=O)OCC(=O)Nc1cccc(S(=O)(=O)N(C)C)c1

Reference: PubChem BioAssay AID651581 (Sanford-Burnham Center for Chemical Genomics, 2012)
